Experimental data taken from publication PMC12250785, “Synthesis of Novel 7-Phenyl-2,3-Dihydropyrrolo[2,1-b]Quinazolin-9(1H)-ones as Cholinesterase Inhibitors Targeting Alzheimer’s Disease Through Suzuki–Miyaura Cross-Coupling Reaction” (Molecules, 2025).

Legend:
[1] = target: AChE (E.C. 3.1.1.7) (Electrophorus electricus, UniProt O42275); experiment: biochemical; settings: for IC50: AChE from electric eel, Ellman method, means ± SD of triplicate independent experiments; for Selectivity (BChE/AChE): BChE IC50/AChE IC50
Description: The results are presented as IC50 values.
The total volume of the reaction was 200 μL, consisting of 2 μL of sample, 138 μL of Tris-HCl buffer solution containing acetylcholinesterase (final concentration of 0.03 U/mL), and a control consisting of Tris-HCl buffer solution without the enzyme. The reaction was incubated at room temperature for 10 min. Following this, 20 μL of […] (5 mM) was added, and the reaction was conducted at 37 °C for an additional 10 min.

[2] = target: BChE (E.C. 3.1.1.8) (Equus caballus, UniProt P81908); experiment: biochemical; settings: BChE from horse serum; Ellman method; means ± SD of triplicate independent experiments
[3] = Solubility in common organic solvents; format: physicochemical

Sequence of AChE (E.C. 3.1.1.7) (O42275 24-633): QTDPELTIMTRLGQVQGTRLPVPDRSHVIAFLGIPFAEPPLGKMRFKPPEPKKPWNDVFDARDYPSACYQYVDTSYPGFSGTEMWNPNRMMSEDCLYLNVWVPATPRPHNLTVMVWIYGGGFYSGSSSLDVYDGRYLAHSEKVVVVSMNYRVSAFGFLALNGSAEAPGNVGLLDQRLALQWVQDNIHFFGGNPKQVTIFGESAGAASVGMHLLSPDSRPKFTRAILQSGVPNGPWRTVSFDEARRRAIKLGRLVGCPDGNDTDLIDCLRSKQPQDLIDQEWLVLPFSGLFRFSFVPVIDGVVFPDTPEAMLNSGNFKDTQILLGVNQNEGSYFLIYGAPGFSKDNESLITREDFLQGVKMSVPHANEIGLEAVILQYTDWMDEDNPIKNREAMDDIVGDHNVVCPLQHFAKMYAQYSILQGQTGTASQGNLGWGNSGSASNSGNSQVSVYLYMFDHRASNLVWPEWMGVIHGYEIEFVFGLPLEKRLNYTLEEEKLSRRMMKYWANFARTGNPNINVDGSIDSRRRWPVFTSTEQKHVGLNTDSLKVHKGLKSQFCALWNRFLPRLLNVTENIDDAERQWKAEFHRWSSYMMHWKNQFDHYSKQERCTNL
Sequence of BChE (E.C. 3.1.1.8) (P81908 whole entry): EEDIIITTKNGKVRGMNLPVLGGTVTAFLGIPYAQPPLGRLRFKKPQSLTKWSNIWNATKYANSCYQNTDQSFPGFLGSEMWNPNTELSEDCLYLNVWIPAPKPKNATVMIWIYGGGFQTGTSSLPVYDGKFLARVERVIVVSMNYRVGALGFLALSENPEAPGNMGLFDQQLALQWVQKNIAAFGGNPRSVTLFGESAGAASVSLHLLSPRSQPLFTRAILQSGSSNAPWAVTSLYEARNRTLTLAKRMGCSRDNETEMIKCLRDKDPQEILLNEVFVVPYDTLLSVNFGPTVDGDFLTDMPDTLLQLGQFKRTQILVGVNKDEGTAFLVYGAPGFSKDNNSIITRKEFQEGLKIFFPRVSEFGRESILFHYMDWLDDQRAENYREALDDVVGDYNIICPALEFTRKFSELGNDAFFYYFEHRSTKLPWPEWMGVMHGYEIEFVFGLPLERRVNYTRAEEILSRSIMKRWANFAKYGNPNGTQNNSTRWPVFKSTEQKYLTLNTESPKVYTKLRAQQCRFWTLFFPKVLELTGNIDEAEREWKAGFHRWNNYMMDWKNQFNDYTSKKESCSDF

Row | SMILES | IC50 [1] | IC50 [2] | Selectivity (BChE/AChE) [1] | solubility in common organic solvents [3]
1 | O=c1c2cc(-c3ccc(Cl)cc3)ccc2nc2n1CCC2 [3a, 7-(4-Chlorophenyl)-2,3-dihydropyrrolo[2,1-b]quinazolin-9(1H)-one] | > 50 µM | > 50 µM | – | –
2 | O=c1c2cc(-c3ccc(F)cc3)ccc2nc2n1CCC2 [3b, 7-(4-Fluorophenyl)-2,3-dihydropyrrolo[2,1-b]quinazolin-9(1H)-one] | 34.8 ± 1.21 µM | 15.5 ± 0.41 µM | 0.5 | –
3 | O=c1c2cc(-c3ccc(C(F)(F)F)cc3)ccc2nc2n1CCC2 [3c, 7-(4-(Trifluoromethyl)phenyl)-2,3-dihydropyrrolo[2,1-b]quinazolin-9(1H)-one] | > 50 µM | > 50 µM | – | –
4 | COc1ccc(-c2ccc3nc4n(c(=O)c3c2)CCC4)cc1 [3d, 7-(4-Methoxyphenyl)-2,3-dihydropyrrolo[2,1-b]quinazolin-9(1H)-one] | 16.2 ± 0.39 µM | > 50 µM | – | –
5 | CC(C)(C)c1ccc(-c2ccc3nc4n(c(=O)c3c2)CCC4)cc1 [3e, 7-(4-(tert-Butyl)phenyl)-2,3-dihydropyrrolo[2,1-b]quinazolin-9(1H)-one] | > 50 µM | > 50 µM | – | –
6 | Cc1cccc(-c2ccc3nc4n(c(=O)c3c2)CCC4)c1 [3f, 7-(m-Tolyl)-2,3-dihydropyrrolo[2,1-b]quinazolin-9(1H)-one] | 28.7 ± 0.69 µM | 22.8 ± 0.49 µM | 0.8 | –
7 | O=c1c2cc(-c3cccc(Cl)c3)ccc2nc2n1CCC2 [3g, 7-(3-Chlorophenyl)-2,3-dihydropyrrolo[2,1-b]quinazolin-9(1H)-one] | 27.9 ± 0.72 µM | 22.2 ± 0.48 µM | 0.8 | –
8 | COc1cccc(-c2ccc3nc4n(c(=O)c3c2)CCC4)c1 [3h, 7-(3-Methoxyphenyl)-2,3-dihydropyrrolo[2,1-b]quinazolin-9(1H)-one] | 17.7 ± 0.84 µM | 41.8 ± 1.28 µM | 2.4 | –
9 | CC(=O)c1cccc(-c2ccc3nc4n(c(=O)c3c2)CCC4)c1 [3i, 7-(3-Acetylphenyl)-2,3-dihydropyrrolo[2,1-b]quinazolin-9(1H)-one] | 33.2 ± 1.01 µM | > 50 µM | – | –
10 | Cc1ccccc1-c1ccc2nc3n(c(=O)c2c1)CCC3 [3j, 7-(o-Tolyl)-2,3-dihydropyrrolo[2,1-b]quinazolin-9(1H)-one] | > 50 µM | 11.1 ± 0.37 µM | – | –
11 | O=c1c2cc(-c3ccc(F)c(Cl)c3)ccc2nc2n1CCC2 [3k, 7-(3-Chloro-4-fluorophenyl)-2,3-dihydropyrrolo[2,1-b]quinazolin-9(1H)-one] | 6.08 ± 0.26 µM | 29 ± 0.74 µM | 4.8 | –
12 | COc1ccc(Cl)cc1-c1ccc2nc3n(c(=O)c2c1)CCC3 [3l, 7-(5-Chloro-2-methoxyphenyl)-2,3-dihydropyrrolo[2,1-b]quinazolin-9(1H)-one] | 14.7 ± 0.48 µM | 28.5 ± 0.46 µM | 2.0 | –
13 | O=c1c2cc(-c3cccc4ccccc34)ccc2nc2n1CCC2 [3m, 7-(Naphthalen-1-yl)-2,3-dihydropyrrolo[2,1-b]quinazolin-9(1H)-one] | > 50 µM | 32 ± 0.72 µM | – | –
14 | O=c1c2cc(-c3ccccc3)ccc2nc2n1CCC2 [3n, 7-Phenyl-2,3-dihydropyrrolo[2,1-b]quinazolin-9(1H)-one] | 35.9 ± 1.03 µM | 22.9 ± 0.57 µM | 0.64 | –
15 | O=c1c2cc(-c3ccc(Cl)cc3)ccc2nc2n1CCCC2 [4a, 2-(4-Chlorophenyl)-6,7,8,9-tetrahydro-11H-pyrido[2,1-b]quinazolin-11-one] | > 50 µM | > 50 µM | – | –
16 | O=c1c2cc(-c3ccc(F)cc3)ccc2nc2n1CCCC2 [4b, 2-(4-Fluorophenyl)-6,7,8,9-tetrahydro-11H-pyrido[2,1-b]quinazolin-11-one] | 34.6 ± 1.27 µM | > 50 µM | – | –
17 | O=c1c2cc(-c3ccc(C(F)(F)F)cc3)ccc2nc2n1CCCC2 [4c, 2-(4-(Trifluoromethyl)phenyl)-6,7,8,9-tetrahydro-11H-pyrido[2,1-b]quinazolin-11-one] | > 50 µM | > 50 µM | – | –
18 | COc1ccc(-c2ccc3nc4n(c(=O)c3c2)CCCC4)cc1 [4d, 2-(4-Methoxyphenyl)-6,7,8,9-tetrahydro-11H-pyrido[2,1-b]quinazolin-11-one] | 33.2 ± 1.08 µM | > 50 µM | – | –
19 | CC(C)(C)c1ccc(-c2ccc3nc4n(c(=O)c3c2)CCCC4)cc1 [4e, 2-(4-(tert-Butyl)phenyl)-6,7,8,9-tetrahydro-11H-pyrido[2,1-b]quinazolin-11-one] | > 50 µM | > 50 µM | – | –
20 | Cc1cccc(-c2ccc3nc4n(c(=O)c3c2)CCCC4)c1 [4f, 2-(m-Tolyl)-6,7,8,9-tetrahydro-11H-pyrido[2,1-b]quinazolin-11-one] | 6.39 ± 0.31 µM | 10.7 ± 0.64 µM | 1.7 | poor solubility
21 | O=c1c2cc(-c3cccc(Cl)c3)ccc2nc2n1CCCC2 [4g, 2-(3-Chlorophenyl)-6,7,8,9-tetrahydro-11H-pyrido[2,1-b]quinazolin-11-one] | 21.3 ± 0.88 µM | 22.9 ± 0.76 µM | 1.1 | –
22 | COc1cccc(-c2ccc3nc4n(c(=O)c3c2)CCCC4)c1 [4h, 2-(3-Methoxyphenyl)-6,7,8,9-tetrahydro-11H-pyrido[2,1-b]quinazolin-11-one] | 42.7 ± 1.8 µM | 42.3 ± 1.23 µM | 1 | –
23 | CC(=O)c1cccc(-c2ccc3nc4n(c(=O)c3c2)CCCC4)c1 [4i, 2-(3-Acetylphenyl)-6,7,8,9-tetrahydro-11H-pyrido[2,1-b]quinazolin-11-one] | 11.1 ± 0.73 µM | > 50 µM | – | –
24 | Cc1ccccc1-c1ccc2nc3n(c(=O)c2c1)CCCC3 [4j, 2-(o-Tolyl)-6,7,8,9-tetrahydro-11H-pyrido[2,1-b]quinazolin-11-one] | > 50 µM | > 50 µM | – | –
25 | O=c1c2cc(-c3ccc(F)c(Cl)c3)ccc2nc2n1CCCC2 [4k, 2-(3-Chloro-4-fluorophenyl)-6,7,8,9-tetrahydro-11H-pyrido[2,1-b]quinazolin-11-one] | > 50 µM | > 50 µM | – | –
26 | COc1ccc(Cl)cc1-c1ccc2nc3n(c(=O)c2c1)CCCC3 [4l, 2-(5-Chloro-2-methoxyphenyl)-6,7,8,9-tetrahydro-11H-pyrido[2,1-b]quinazolin-11-one] | > 50 µM | 46.6 ± 1.45 µM | – | –
27 | O=c1c2cc(-c3cccc4ccccc34)ccc2nc2n1CCCC2 [4m, 2-(Naphthalen-1-yl)-6,7,8,9-tetrahydro-11H-pyrido[2,1-b]quinazolin-11-one] | > 50 µM | > 50 µM | – | –
28 | O=c1c2cc(-c3ccccc3C(F)(F)F)ccc2nc2n1CCCC2 [4n, 2-(2-(Trifluoromethyl)phenyl)-6,7,8,9-tetrahydro-11H-pyrido[2,1-b]quinazolin-11-one] | > 50 µM | 43.2 ± 1.27 µM | – | –
